# Columns and labels:
# SHP2 E76K = SHP2 E76K (Homo sapiens, UniProt Q06124, E76K); assay: Selectivity panel (Table 3); format: biochemical
# [1] = Metabolite ID in Liver S9; format: in vitro ADME; conditions: HBI-2375 and metabolites in Dog liver S9
# CD39 = CD39 (Homo sapiens, UniProt P49961); assay: Selectivity panel (Table 3); format: biochemical
# BRD2-BD1 = target: T1, BRD2-BD1 (Homo sapiens, UniProt P25440); assay: Selectivity panel (Table 3); format: binding
# T1 construct: BRD2-BD1
# BRD2-BD2 = target: T2, BRD2-BD2 (Homo sapiens, UniProt P25440); assay: Selectivity panel (Table 3); format: binding
# T2 construct: BRD2-BD2
# T2 sequence (P25440 344-453 limits assumed): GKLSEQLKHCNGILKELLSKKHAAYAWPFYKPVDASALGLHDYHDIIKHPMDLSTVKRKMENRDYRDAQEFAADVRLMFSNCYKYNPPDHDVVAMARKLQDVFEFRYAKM
# WDR5 = WDR5 (Homo sapiens, UniProt P61964); assay: Selectivity panel (Table 3); format: binding
# Mouse PK (oral) = format: in vivo, C57/B16 mice; conditions: for Cmax: plasma; for AUC(0-t) / half-life: C57/B16, plasma
# Experimental: Mouse PK: Animals were dosed with a single intravenous bolus or oral gavage administration in naïve C57/B16 mice (Beijing Vital River Laboratory Animal Co., LTD). Blood samples were collected at the respective sampling time points. The quantification of compound concentrations in mouse or rat plasma was quantified using LC-MS/MS method. Plasma concentration versus time data was analyzed by non-compartmental mode approaches using the WinNonlin software program (version 6.3 or above, Pharsight). Pharmacokinetic parameters, including C0 (initial concentration after drug administration), […], Vdss (volume of distribution), Cmax (maximum peak concentration of the drug), Tmax (time required to reach Cmax) T1/2 (time required for drug concentration to decrease by 50% after administration), AUC0-last (area under the concentration-time curve from dosing time t=0 to the time of the last measured concentration), AUC0-inf (total drug exposure across time), MRT0-last (mean residence time from dosing time t=0 to the time of the last measured concentration), MRT0-inf f (mean residence time of total drug exposure), bioavailability (%) (the percentage (or the fraction F) of an administered drug dose that reaches the systemic circulation) for IV and PO groups were calculated. See Table 7 and FIGS. 6A, 6B, 6C and 6D.
# POLQ ATPase = POLQ ATPase (Homo sapiens, UniProt O75417); assay: Selectivity panel (Table 3); format: biochemical
# Sequence of POLQ ATPase (O75417 whole entry): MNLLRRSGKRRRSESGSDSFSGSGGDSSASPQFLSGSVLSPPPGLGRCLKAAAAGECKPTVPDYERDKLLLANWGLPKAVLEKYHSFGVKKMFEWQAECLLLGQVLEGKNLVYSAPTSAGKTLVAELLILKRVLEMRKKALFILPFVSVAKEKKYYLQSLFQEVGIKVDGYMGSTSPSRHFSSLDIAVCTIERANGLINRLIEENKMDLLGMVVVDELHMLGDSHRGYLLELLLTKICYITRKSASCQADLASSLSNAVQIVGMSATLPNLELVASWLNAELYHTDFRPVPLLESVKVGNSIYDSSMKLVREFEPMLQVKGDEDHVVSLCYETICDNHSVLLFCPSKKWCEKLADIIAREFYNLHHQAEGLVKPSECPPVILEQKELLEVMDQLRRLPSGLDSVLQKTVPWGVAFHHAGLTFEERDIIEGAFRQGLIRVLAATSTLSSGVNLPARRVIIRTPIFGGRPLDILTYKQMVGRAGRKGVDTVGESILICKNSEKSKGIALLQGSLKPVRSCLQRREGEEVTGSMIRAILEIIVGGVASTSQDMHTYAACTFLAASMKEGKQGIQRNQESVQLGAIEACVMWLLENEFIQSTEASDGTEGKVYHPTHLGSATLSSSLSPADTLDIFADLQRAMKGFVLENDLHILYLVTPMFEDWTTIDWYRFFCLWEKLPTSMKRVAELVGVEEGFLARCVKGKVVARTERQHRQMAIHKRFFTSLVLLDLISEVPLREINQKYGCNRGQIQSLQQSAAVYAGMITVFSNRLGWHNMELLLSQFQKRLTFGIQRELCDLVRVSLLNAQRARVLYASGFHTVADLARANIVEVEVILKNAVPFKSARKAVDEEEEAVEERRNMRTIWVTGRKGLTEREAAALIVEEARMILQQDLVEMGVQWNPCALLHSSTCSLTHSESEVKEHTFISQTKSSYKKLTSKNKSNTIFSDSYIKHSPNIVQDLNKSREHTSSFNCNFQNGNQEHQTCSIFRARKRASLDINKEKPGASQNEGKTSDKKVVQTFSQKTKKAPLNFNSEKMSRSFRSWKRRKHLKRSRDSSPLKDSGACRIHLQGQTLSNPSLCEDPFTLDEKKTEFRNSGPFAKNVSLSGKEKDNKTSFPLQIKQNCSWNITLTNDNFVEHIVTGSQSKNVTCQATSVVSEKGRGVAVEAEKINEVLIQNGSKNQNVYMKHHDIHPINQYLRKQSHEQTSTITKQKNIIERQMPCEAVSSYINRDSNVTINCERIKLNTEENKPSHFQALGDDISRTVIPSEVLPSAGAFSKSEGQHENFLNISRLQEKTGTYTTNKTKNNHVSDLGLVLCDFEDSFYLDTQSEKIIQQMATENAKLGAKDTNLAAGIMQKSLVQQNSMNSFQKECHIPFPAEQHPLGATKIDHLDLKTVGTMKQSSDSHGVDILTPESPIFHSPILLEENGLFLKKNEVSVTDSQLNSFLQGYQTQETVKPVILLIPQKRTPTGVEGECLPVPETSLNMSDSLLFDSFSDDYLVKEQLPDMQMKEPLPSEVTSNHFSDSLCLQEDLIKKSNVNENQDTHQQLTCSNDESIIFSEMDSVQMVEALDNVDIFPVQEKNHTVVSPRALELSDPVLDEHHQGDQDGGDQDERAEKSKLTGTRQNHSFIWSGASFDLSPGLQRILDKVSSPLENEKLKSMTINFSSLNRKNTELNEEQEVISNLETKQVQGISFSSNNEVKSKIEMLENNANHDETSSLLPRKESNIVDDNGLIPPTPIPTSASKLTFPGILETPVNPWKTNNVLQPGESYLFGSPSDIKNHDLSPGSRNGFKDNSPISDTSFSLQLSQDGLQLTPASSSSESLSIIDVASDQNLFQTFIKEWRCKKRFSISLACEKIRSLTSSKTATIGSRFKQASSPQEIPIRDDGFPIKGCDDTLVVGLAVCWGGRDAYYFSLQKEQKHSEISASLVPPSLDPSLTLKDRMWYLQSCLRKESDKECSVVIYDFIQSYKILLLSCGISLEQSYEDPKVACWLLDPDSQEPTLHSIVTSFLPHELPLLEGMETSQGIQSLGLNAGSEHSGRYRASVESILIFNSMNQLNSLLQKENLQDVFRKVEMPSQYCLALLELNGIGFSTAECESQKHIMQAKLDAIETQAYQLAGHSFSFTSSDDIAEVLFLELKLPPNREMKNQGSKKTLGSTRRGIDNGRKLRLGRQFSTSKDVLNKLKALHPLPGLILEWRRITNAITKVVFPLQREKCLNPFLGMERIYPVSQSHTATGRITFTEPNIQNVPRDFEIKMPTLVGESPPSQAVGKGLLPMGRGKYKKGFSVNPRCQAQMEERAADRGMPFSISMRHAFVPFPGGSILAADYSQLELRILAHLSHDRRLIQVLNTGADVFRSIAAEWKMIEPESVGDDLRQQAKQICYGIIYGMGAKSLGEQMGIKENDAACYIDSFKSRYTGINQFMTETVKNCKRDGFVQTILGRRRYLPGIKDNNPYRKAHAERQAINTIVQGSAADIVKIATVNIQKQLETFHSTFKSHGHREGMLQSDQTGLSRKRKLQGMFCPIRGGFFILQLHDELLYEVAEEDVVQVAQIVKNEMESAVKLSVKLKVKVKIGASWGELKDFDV
# SHP2 WT = SHP2 WT (Homo sapiens, UniProt Q06124); assay: Selectivity panel (Table 3); format: biochemical
# Sequence of SHP2 WT (Q06124 whole entry): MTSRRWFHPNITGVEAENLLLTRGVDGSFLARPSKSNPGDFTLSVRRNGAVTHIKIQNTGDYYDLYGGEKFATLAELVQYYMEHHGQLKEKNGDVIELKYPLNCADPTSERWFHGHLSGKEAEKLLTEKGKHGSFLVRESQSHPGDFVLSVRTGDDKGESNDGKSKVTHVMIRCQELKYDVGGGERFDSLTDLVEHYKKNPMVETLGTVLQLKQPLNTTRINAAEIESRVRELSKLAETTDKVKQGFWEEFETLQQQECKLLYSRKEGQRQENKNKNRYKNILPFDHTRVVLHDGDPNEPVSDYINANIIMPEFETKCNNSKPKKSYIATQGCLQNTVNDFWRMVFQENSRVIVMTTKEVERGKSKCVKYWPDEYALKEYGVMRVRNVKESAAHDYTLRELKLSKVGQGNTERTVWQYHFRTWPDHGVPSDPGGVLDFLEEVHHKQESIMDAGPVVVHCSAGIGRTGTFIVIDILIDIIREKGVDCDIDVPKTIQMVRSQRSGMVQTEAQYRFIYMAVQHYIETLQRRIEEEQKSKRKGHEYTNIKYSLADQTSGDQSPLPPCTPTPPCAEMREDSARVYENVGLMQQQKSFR
# PD-1/PD-L1 = PD-1/PD-L1 (Homo sapiens, UniProt Q9NZQ7); assay: Selectivity panel (Table 3); format: binding
# Sequence of PD-1/PD-L1 (Q9NZQ7 19-238 limits assumed): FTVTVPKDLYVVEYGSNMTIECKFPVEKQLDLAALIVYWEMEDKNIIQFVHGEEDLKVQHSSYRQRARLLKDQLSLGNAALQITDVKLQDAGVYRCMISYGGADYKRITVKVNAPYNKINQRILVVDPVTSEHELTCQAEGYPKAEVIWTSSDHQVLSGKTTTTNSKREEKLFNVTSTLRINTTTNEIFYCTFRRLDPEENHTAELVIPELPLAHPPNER
# [2] = Compound formulation stability assay; format: physicochemical; conditions: 10 mg/mL in 10% DMSO/10% solutol HS 15/80% water, 2-8° C.
# Experimental: Compound formulation stability assay: Test articles were formulated in 10% DMSO/10% solutol HS 15/80% water and stored at 4° C. Formulated compounds were analyzed by a HPLC-UV method for actual concentrations and % remaining on Day 1, 4 and 7 after formulation to determine the stability of the formulated test article. The HPLC system was equipped with Shimadzu LC-20 high-performance liquid chromatograph, SIL-20AC auto sampler, LC-20AB pump and SPD-M20A detector. A Waters XBridge C18 (4.6*100 mm) column was applied for the separation. […]
# TEAD3 = TEAD3 (Homo sapiens, UniProt Q99594); assay: Selectivity panel (Table 3); format: binding
# Sequence of TEAD3 (Q99594 whole entry, species assumed): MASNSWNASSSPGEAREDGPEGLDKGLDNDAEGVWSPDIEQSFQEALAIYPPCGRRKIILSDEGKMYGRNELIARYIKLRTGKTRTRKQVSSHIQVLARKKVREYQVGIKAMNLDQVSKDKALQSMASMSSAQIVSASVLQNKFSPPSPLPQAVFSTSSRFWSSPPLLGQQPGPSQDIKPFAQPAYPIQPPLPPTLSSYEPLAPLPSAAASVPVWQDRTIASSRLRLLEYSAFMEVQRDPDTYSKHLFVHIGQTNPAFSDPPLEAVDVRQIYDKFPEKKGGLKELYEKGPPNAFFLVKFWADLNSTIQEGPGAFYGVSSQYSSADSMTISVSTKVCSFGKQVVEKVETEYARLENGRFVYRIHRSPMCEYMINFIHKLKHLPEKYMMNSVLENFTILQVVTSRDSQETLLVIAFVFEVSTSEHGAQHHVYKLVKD
# Sequence of SHP2 E76K (Q06124 whole entry E76K): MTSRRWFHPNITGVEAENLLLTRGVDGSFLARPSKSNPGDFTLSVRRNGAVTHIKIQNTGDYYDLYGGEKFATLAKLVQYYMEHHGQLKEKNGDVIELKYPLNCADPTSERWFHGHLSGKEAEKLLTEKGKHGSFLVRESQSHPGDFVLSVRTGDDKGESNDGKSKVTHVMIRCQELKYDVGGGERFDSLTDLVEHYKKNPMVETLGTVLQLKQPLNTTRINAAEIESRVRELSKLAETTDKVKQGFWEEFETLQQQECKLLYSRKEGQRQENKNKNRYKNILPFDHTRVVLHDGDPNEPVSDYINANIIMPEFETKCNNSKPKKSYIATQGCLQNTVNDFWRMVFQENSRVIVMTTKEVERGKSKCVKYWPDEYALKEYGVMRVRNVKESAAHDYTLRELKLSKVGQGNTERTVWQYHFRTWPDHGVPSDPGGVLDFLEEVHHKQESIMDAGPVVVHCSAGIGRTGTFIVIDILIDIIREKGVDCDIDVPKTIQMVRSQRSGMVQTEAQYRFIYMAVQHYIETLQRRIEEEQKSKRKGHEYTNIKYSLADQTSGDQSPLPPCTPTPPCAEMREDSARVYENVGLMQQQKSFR
# Sequence of CD39 (P49961 whole entry, species assumed): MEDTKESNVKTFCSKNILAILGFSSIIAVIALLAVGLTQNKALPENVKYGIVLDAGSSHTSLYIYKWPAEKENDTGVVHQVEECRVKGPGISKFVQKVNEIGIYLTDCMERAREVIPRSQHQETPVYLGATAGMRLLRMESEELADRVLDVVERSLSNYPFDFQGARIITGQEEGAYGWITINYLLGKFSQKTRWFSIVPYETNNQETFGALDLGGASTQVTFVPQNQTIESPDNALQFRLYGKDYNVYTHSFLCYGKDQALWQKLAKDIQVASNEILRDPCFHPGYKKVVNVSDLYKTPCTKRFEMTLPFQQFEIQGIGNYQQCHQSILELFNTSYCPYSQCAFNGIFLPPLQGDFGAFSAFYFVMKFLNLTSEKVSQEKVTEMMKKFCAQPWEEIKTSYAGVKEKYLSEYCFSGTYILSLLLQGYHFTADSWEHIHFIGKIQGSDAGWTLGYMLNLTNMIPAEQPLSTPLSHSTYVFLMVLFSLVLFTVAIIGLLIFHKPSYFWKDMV
structure (smiles),measurement,setting,value
"Cc1c(F)c(N)cc(C(=O)Nc2cc(-n3cc(C(=O)N4CCN(C)CC4)nn3)c(F)cc2N2C[C@@H](C)N(C)[C@@H](C)C2)c1Cl [HYBI-084, 5-amino-2-chloro-4-fluoro-N-(4-fluoro-5-(4-(4-methylpiperazine-1-carbonyl)-1H-1,2,3-triazol-1-yl)-2-((3S,5R)-3,4,5-trimethylpiperazin-1-yl)phenyl)-3-methylbenzamide]",IC50,SHP2 E76K,> 1000 nM
same,Relative Abundance (UV Peak Area % Total),[1],70.71%
same,IC50,CD39,> 1000 nM
same,IC50,BRD2-BD1,> 1000 nM
same,IC50,BRD2-BD2,> 1000 nM
same,IC50,WDR5,0.683 nM
same,F,Mouse PK (oral); 10 mpk,26.3%
same,F,Mouse PK (oral); 30 mpk,37.7%
same,Cmax,"Mouse PK (oral); C57/B16, 10 mg/kg, 10 mpk",359 nM
same,Cmax,"Mouse PK (oral); C57/B16, 30 mg/kg, 30 mpk",1280 nM
same,AUC(0-t),"Mouse PK (oral); 10 mg/kg, 10 mpk",1.31 µM·h
same,half-life,"Mouse PK (oral); 10 mg/kg, 10 mpk",3.1 h
same,AUC(0-t),"Mouse PK (oral); 30 mg/kg, 30 mpk",5.64 µM·h
same,half-life,"Mouse PK (oral); 30 mg/kg, 30 mpk",3.5 h
same,IC50,POLQ ATPase,> 1000 nM
same,IC50,SHP2 WT,> 1000 nM
same,IC50,PD-1/PD-L1,> 1000 nM
same,Accuracy % (Day 0),[2]; Day 0,92.8%
same,Formulation Appearance (Day 0),[2]; Day 0,clear solution
same,Remaining % (Day 0),[2]; Day 0,100%
same,Accuracy % (Day 1),[2]; Day 1,93.4%
same,Formulation Appearance (Day 1),[2]; Day 1,clear solution
same,Remaining % (Day 1),[2]; Day 1,101%
same,Accuracy % (Day 4),[2]; Day 4,92.9%
same,Formulation Appearance (Day 4),[2]; Day 4,clear solution
same,Remaining % (Day 4),[2]; Day 4,100%
same,Accuracy % (Day 7),[2]; Day 7,91.5%
same,Formulation Appearance (Day 7),[2]; Day 7,clear solution
same,Remaining % (Day 7),[2]; Day 7,98.7%
same,IC50,TEAD3,> 1000 nM

# Source: patent US20230293539A1, “MLL1-WDR5 PROTEIN-PROTEIN INTERACTION INHIBITOR COMPOUNDS AND USES THEREOF” (HUYABIO International, LLC, priority 2022, published 2023)
